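A five-concentration, 48-hour dose response in 96-well plates underlies each endpoint, interpolated linearly between surrounding concentrations. Here, GI50 denotes the concentration required for 50% inhibition of growth. Definition used: TGI = concentration required for complete inhibition of growth.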
What was measured:
Assay in all cases: inhibition of tumour cell growth, NCI panel, 48 h
UACC-257 melanoma = system: UACC-257 melanoma
CAKI-1 renal = system: CAKI-1 renal
SK-MEL-5 melanoma = system: SK-MEL-5 melanoma
HCC-2998 colon = system: HCC-2998 colon
TK-10 renal = system: TK-10 renal
MALME-3M melanoma = system: MALME-3M melanoma
EKVX NSCLC = system: EKVX NSCLC
SF-295 CNS = system: SF-295 CNS
PC-3 prostate = system: PC-3 prostate
SK-OV-3 ovarian = system: SK-OV-3 ovarian
SNB-75 CNS = system: SNB-75 CNS
NCI-H23 lung = system: NCI-H23 lung
NCI-H226 lung = system: NCI-H226 lung
CCRF-CEM leukemia = system: CCRF-CEM leukemia
HT29 colon = system: HT29 colon
SR leukemia = system: SR leukemia
HS 578T breast = system: HS 578T breast
SK-MEL-2 melanoma = system: SK-MEL-2 melanoma
786-0 renal = system: 786-0 renal
SF-539 CNS = system: SF-539 CNS
LOX IMVI melanoma = system: LOX IMVI melanoma
NCI-H460 lung = system: NCI-H460 lung
T-47D breast = system: T-47D breast
SW-620 colon = system: SW-620 colon
HOP-92 NSCLC = system: HOP-92 NSCLC
HOP-62 NSCLC = system: HOP-62 NSCLC
OVCAR-5 ovarian = system: OVCAR-5 ovarian
M14 melanoma = system: M14 melanoma
MDA-MB-435 = system: MDA-MB-435
HCT-15 colon = system: HCT-15 colon
MDA-MB-231 breast = system: MDA-MB-231 breast
OVCAR-8 ovarian = system: OVCAR-8 ovarian
RXF 393 renal = system: RXF 393 renal
U251 CNS = system: U251 CNS
OVCAR-4 ovarian = system: OVCAR-4 ovarian
DU-145 prostate = system: DU-145 prostate
A498 renal = system: A498 renal
IGROV1 ovarian = system: IGROV1 ovarian
MCF7 breast = system: MCF7 breast
SN12C renal = system: SN12C renal
SK-MEL-28 melanoma = system: SK-MEL-28 melanoma
HCT-116 colon = system: HCT-116 colon
NCI-H522 lung = system: NCI-H522 lung
SF-268 CNS = system: SF-268 CNS
NCI/ADR-RES ovarian = system: NCI/ADR-RES ovarian
UACC-62 melanoma = system: UACC-62 melanoma
A549 NSCLC = system: A549 NSCLC
SNB-19 CNS = system: SNB-19 CNS
COLO 205 colon = system: COLO 205 colon
K-562 leukemia = system: K-562 leukemia
UO-31 renal = system: UO-31 renal
ACHN renal = system: ACHN renal
OVCAR-3 ovarian = system: OVCAR-3 ovarian
RPMI-8226 leukemia = system: RPMI-8226 leukemia
BT-549 breast = system: BT-549 breast

## N#CSCc1c(Cl)cccc1Cl
UACC-257 melanoma
  GI50: 10.9 µM
  TGI: > 81.3 µM
CAKI-1 renal
  GI50: 0.309 µM
  TGI: > 20.2 µM
SK-MEL-5 melanoma
  GI50: 4.5 µM
  TGI: 21.2 µM
HCC-2998 colon
  GI50: 4.19 µM
  TGI: 45.2 µM
TK-10 renal
  GI50: 4.51 µM
  TGI: > 29.2 µM
MALME-3M melanoma
  GI50: 8.71 µM
  TGI: > 100 µM
EKVX NSCLC
  GI50: 3.94 µM
  TGI: > 27.4 µM
SF-295 CNS
  GI50: 16.2 µM
  TGI: > 91.4 µM
PC-3 prostate
  GI50: 8.73 µM
  TGI: > 100 µM
SK-OV-3 ovarian
  GI50: 34 µM
  TGI: > 100 µM
SNB-75 CNS
  GI50: 20.2 µM
  TGI: > 100 µM
NCI-H23 lung
  GI50: 5.41 µM
  TGI: > 100 µM
NCI-H226 lung
  GI50: 12.6 µM
  TGI: > 100 µM
CCRF-CEM leukemia
  GI50: 0.323 µM
  TGI: > 43.8 µM
HT29 colon
  GI50: 3.75 µM
  TGI: > 100 µM
SR leukemia
  TGI: > 24 µM
HS 578T breast
  GI50: 3.04 µM
  TGI: 8.26 µM
SK-MEL-2 melanoma
  GI50: 4.02 µM
  TGI: > 100 µM
786-0 renal
  GI50: 5.57 µM
  TGI: > 100 µM
SF-539 CNS
  GI50: 3.45 µM
  TGI: > 35.5 µM
LOX IMVI melanoma
  GI50: 3.55 µM
  TGI: > 100 µM
NCI-H460 lung
  GI50: 4.29 µM
  TGI: > 53.4 µM
T-47D breast
  GI50: 13.3 µM
  TGI: > 96.1 µM
SW-620 colon
  GI50: 0.76 µM
  TGI: > 46.3 µM
HOP-92 NSCLC
  GI50: 1.18 µM
  TGI: > 30 µM
HOP-62 NSCLC
  GI50: 36.6 µM
  TGI: > 100 µM
OVCAR-5 ovarian
  GI50: 7.41 µM
  TGI: > 100 µM
M14 melanoma
  GI50: 3.05 µM
  TGI: > 100 µM
MDA-MB-435
  GI50: 2.11 µM
  TGI: 5.63 µM
HCT-15 colon
  GI50: 2.96 µM
  TGI: > 100 µM
MDA-MB-231 breast
  GI50: 3.43 µM
  TGI: > 63.5 µM
OVCAR-8 ovarian
  GI50: 4.8 µM
  TGI: > 100 µM
RXF 393 renal
  GI50: 2.54 µM
  TGI: 7.24 µM
U251 CNS
  GI50: 3.83 µM
  TGI: > 100 µM
OVCAR-4 ovarian
  GI50: 5.82 µM
  TGI: > 100 µM
DU-145 prostate
  GI50: 2.74 µM
  TGI: 5.71 µM
A498 renal
  GI50: 4.76 µM
  TGI: 19.6 µM
IGROV1 ovarian
  GI50: 2.69 µM
  TGI: 7.2 µM
MCF7 breast
  GI50: 3.27 µM
  TGI: > 100 µM
SN12C renal
  GI50: 4.5 µM
  TGI: > 100 µM
SK-MEL-28 melanoma
  GI50: 9.16 µM
  TGI: > 100 µM
HCT-116 colon
  GI50: 2.92 µM
  TGI: > 39.3 µM
NCI-H522 lung
  GI50: 2.07 µM
  TGI: 6.33 µM
SF-268 CNS
  GI50: 4.9 µM
  TGI: > 65.5 µM
NCI/ADR-RES ovarian
  GI50: 6.25 µM
  TGI: > 100 µM
UACC-62 melanoma
  GI50: 5.18 µM
  TGI: > 67.4 µM
A549 NSCLC
  GI50: 3.31 µM
  TGI: > 100 µM
SNB-19 CNS
  GI50: 32.3 µM
  TGI: > 100 µM
COLO 205 colon
  GI50: 2.34 µM
  TGI: 4.97 µM
K-562 leukemia
  GI50: 0.359 µM
  TGI: 16.3 µM
UO-31 renal
  GI50: 4.41 µM
  TGI: 27.6 µM
ACHN renal
  GI50: 5.14 µM
  TGI: > 100 µM
OVCAR-3 ovarian
  GI50: 2.39 µM
  TGI: 5.18 µM
RPMI-8226 leukemia
  GI50: < 0.0506 µM
  TGI: 1.33 µM
BT-549 breast
  GI50: 2.31 µM
  TGI: 7.48 µM
